pIC50: −log10 of the molar value. Calls of active or inactive are those of the source.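 How the source made its calls: active means IC50 at or below 10 micromolar, estimated by hand when no curve fit or under half inhibition at top dose; inactive means IC50 above 10 micromolar.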
Biological target: Steroidogenic factor 1 (Homo sapiens) (UniProt Q13285)
Experiment: inhibition of SF-1 LBD-driven luciferase – cell-based, CHO-K1, Gal4-SF-1 LBD, luciferase luminescence, counter-screen for RORA inhibitor project, dose response (AID 611)
Conditions: CHO-K1 Gal4-SF-1 LBD luciferase reporter

Sequence of Steroidogenic factor 1 (Homo sapiens) (Q13285 whole entry, looked up, the tested form may be a part): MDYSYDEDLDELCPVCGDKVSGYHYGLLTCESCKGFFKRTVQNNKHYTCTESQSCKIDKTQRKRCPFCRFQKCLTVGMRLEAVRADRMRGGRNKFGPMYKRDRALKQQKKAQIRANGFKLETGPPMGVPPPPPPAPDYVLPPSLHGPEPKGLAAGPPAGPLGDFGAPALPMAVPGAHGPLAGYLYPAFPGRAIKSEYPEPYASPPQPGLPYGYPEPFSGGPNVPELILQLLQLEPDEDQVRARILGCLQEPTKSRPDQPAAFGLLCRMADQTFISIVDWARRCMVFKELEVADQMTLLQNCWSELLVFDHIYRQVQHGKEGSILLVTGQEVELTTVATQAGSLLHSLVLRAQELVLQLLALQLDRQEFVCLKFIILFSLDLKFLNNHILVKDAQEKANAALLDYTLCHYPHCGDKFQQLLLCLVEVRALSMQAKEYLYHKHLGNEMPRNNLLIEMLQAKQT

Row | SMILES | pIC50 | IC50
1 | Cc1ccc(C(=O)/C=C/Nc2ccccn2)cc1 | 5.83 | 
2 | COC(=O)C1=C(CN2CCCc3ccccc32)NC(=O)NC1c1ccc(F)cc1 (centres undefined) | 5.18 | 
3 | O=C(/C=C\Nc1ccccn1)c1ccc(Cl)cc1 | 5.31 | 
4 | Cn1nc(CC(=O)Nc2ccc(N3CCN(C(=O)OC(C)(C)C)CC3)cc2)c2ccccc2c1=O | 5.59 | 
5 | O=S(=O)(c1ccc2c(c1)C(=NO)c1cc(S(=O)(=O)N3CCCCC3)ccc1-2)N1CCCCC1 | 5.67 | 
6 | COc1cc(/C=N/O)ccc1OCc1ccc(C(=O)O)cc1 | 6.17 | 
7 | CC(=O)CC1OC(=O)C(Br)=C1NCc1ccccc1 (centres undefined) |  | inactive
8 | O=C(O)CCCCCN1C(=O)CSC1=S |  | > 99 µM (inactive)
9 | O=C(/C=C\Nc1ccc2c(c1)OCO2)c1ccccn1 | 5.82 | 
